The source of these data is patent publication US20100151015A1 (priority 2008, published 2010).

As usually defined, the solubility is the concentration that dissolves in the medium under given conditions. The pKa is the negative logarithm of the acid dissociation constant.

The nature of data set [1]: Solubility of Melperone HCl in various media. The class given is physicochemical.
For data set [2] the following is noted: cited from earlier work.
Data set [3] concerns psychosis in patients with PD. Particulars: cited from earlier work.
For data set [4] the following is noted: human, in vivo; cited from earlier work.
For data set [5] the following is noted: cited from earlier work. The source holds these as a separate data set.
The test system of data set [6] is psychosis associated with PD. Particulars: initial open-label studies; cited from earlier work.

On to `CC1CCN(CCCC(=O)c2ccc(F)cc2)CC1.Cl` [Melperone HCl, 1-(4-fluorophenyl)-4-(4-methyl-1-piperidinyl)-1-butanone hydrochloride], for which the solubility in data set [1] (ethanol, organic solvent or mixture) is 88.5 mg/mL; in data set [1] (phosphate buffer, aqueous buffer, pH 4.5 (phosphate)) it was 800 mg/mL; in data set [1] (phosphate buffer, aqueous buffer, pH 6.8 (phosphate)), 800 mg/mL; in data set [1] (phosphate buffer, aqueous buffer, pH 7.0 (phosphate)), at least 100 mg/mL; in data set [1] (phosphate buffer, aqueous buffer, pH 7.1 (phosphate)), 51.3 mg/mL; in data set [1] (phosphate buffer, aqueous buffer, pH 7.5 (phosphate)) it was 25.6 mg/mL. For the same compound, the solubility in data set [1] (purified water, water) was 800 mg/mL; in data set [1] (simulated gastric fluid, pH 1.2 (0.1N HCl)), 700 mg/mL. For the same compound, in data set [2], the pKa was 9.1.
As to `CC1CCN(CCCC(=O)c2ccc(F)cc2)CC1` [melperone], the “time over which efficacy was maintained” value in data set [3] (mean daily dose of 37.5 mg) was 2 years. In data set [3] (proof-of-concept study), the “efficacy in the treatment of psychosis in patients with PD” value is reported as “has shown efficacy” and the onset of efficacy entry is “rapid (within a week)”. In data set [4], the “incidence of extrapyramidal side effect (EPS) or tardive dyskinesia” value was “low incidence”. Also, the “Solubility in aqueous solutions” value in data set [1] (higher pH values (above pH=7.5)) was “poorly soluble”. Further, the “Solubility in aqueous solutions” value in data set [1] (pH range from about 1.2 up to about pH 6.8) is given as “freely soluble”. Besides, in data set [5] (oral tablet administration), the “mean Tmax” value was 1.5 to 3.0 h. Besides, the absolute oral bioavailability in data set [5] (oral, extensive first-pass metabolism) was 50-70%.
For the compound `OCCOCCN1CCN(C2=Nc3ccccc3Sc3ccccc32)CC1` [quetiapine], in data set [6], the “efficacy in psychosis associated with PD” value was “has shown efficacy” and the “patients with worsening of motor symptoms of PD” value is listed as “up to 30%”.
